One compound from US20060025430A1, “Novel irreversible inhibitors of epidermal growth factor receptor tyrosine kinase and uses thereof for therapy and diagnosis” (priority 2003, published 2006) can be followed below.

As a reminder, the IC50 is the concentration needed to halve the response being measured. A higher IC50 goes with weaker potency.

The structures appear in SMILES notation.

Common to all, as to type: cell-based
For one assay, the target named is T1, HER1-HER2 chimera (Homo sapiens, UniProt P04626).
T1 construct: HER2 cytoplasmic domain generates normal mitogenic and transforming signals in a chimeric receptor; expressed in transfected cells; host or cells: NIH3T3 (CSH12 cells); the other entry of the earlier key: EGFR (P00533, Epidermal growth factor receptor)
Nature of the assay: Selective-inhibition assay in CSH12 cells (receptor phosphotyrosine, Western blot). Conditions: CSH12 cells expressing HER1-HER2 chimera, 1 hour incubation, EGF stimulation. From the text: (§1) Identical protein amounts from each lysate sample were loaded onto polyacrylamide gel (6% or 10%), separated by electrophoresis (Hoefer Pharmacia Biotech Inc., San Francisco, USA) and transferred to nitrocellulose membrane (power supply: EPS 500/400, Amersham Pharmacia Biotech; nitrocellulose extra blotting membranes: Sartorius AG, Goettingen, Germany). A standard high molecular weight solution was loaded as a reference. For visualization of molecular weight bands, the membrane was immersed in Ponceau reagent (0.05% Ponceau, 5% acetic acid) for a few minutes, and then washed twice with TTN (10 mM Tris pH 7.4, 0.2% TWEEN 20, 170 mM NaCl) and once with water. The membrane was blocked overnight in TTN containing 5% milk (1% fat) (blocking TTN) and incubated for 90 minutes with PY20 antiphosphotyrosine antibody (Santa Cruz Biotechnology Inc., Santa Cruz, USA) diluted 1:2,000 in blocking TTN. The membrane was then washed with TTN (3×5 minutes), incubated for 90 minutes with a horseradish peroxidase-conjugated secondary antibody (Goat anti-mouse IgG H+L, Jackson ImResearch Laboratories, Inc., diluted 1:10,000 in blocking TTN), and finally washed again with TTN (3×5 minutes).

Another assay deals with T2, EGFR-TK (Homo sapiens, UniProt P00533).
T2 construct: The supernatant, which contained the EGFR, was collected and frozen; endogenous in cells; host or cells: A431 cells (A1: Triton X-100 lysate captured on mAb108; A2: intact cells)
Nature of the assay: EGFR-TK autophosphorylation inhibition in intact A431 cells (irreversibility assay, Western blot). To be noted: inhibitor concentration at which 50% inhibition was achieved eight hours post incubation, intact A431 cells, eight hours post incubation. The method, then: A431 cells (5×10^5) were seeded in 6-well plates and grown for 24 hours to about 90% confluence in DMEM (high glucose) containing 10% fetal calf serum (FCS) and antibiotics at 37° C. The cells were then exposed to serum-free medium, at 37° C., for 18 hours.
[…] The medium was replaced thereafter with an inhibitor/FCS-free medium and the cells were divided into two groups: cells of the first group were immediately stimulated with EGF (20 ng/ml) for 5 minutes and then washed with PBS, while cells of the second group were incubated for additional 8 hours, at 37° C. During the 8 hours period, the medium was changed three times (after 2, 4 and 8 hours). After the post-incubation period, the cells of the second group were stimulated with EGF (20 ng/ml) for 5 minutes and then washed with PBS.
as §1
After the incubation, the media was replaced with inhibitor/FCS-free media and the inhibition effect was measured either immediately thereafter or after 8 hours post incubation.
(In general: A western blot detects proteins with antibodies after separation by electrophoresis.)

For the next assay, the target named is PDGFR (Homo sapiens, UniProt P09619). Put plainly: Selective-inhibition assay in […] cells (receptor phosphotyrosine, Western blot). To be noted: […] cells expressing PDGFR, 1 hour incubation, PDGFββ stimulation. How it is done: NIH3T3 cells transformed with either the EGFR (DHER14 cells), with the HER1-HER2 chimera (CSH12 cells) or with the PDGFR (NIH/PDGFR cells), decribed by Lee et al.; 1989, Honegger et al., 1988; and Shawver et al. 1997, and A431 human epidermoid vulval carcinoma cells were grown in Dulbecco's modified Eagle's medium (DMEM) (Biological industries, Kibbuts Beit Haemek, Israel) supplemented with 10% fetal calf serum and antibiotics (penicillin […], streptomycin 100 mg/liter) at 37° C. in 5% CO2.
Selective-inhibition assay: CSH12, DHER14 and […] cells, expressing either the HER1-HER2 chimera, EGFR or PDGFR, respectively, were used for the determination of inhibitory selectivity. Cells (7.5×10^4) were grown in 6-well plates (35 mm diameter, Nalge Nunc) for 24 hours and then incubated in 0.25% FCS-containing medium for an additional 24 hours to about 90% confluence. Duplicate sets of cells were treated with the tested compounds at varying concentrations for 1 hour. The final concentration of the vehicle in the medium was 0.05% DMSO, 0.1% EtOH. After removal of the inhibitor from the medium, PBS wash (×2) and addition of 0.25% serum-containing medium to the wells, the cells were stimulated with either 20 ng/mL human EGF for 5 minutes (CSH12 and DHER14 cells) or 50 ng/ml human PDGFββ for 10 minutes ([…] cells) at 37° C. […]

T1 sequence (P04626 with tags, fused parts or gaps): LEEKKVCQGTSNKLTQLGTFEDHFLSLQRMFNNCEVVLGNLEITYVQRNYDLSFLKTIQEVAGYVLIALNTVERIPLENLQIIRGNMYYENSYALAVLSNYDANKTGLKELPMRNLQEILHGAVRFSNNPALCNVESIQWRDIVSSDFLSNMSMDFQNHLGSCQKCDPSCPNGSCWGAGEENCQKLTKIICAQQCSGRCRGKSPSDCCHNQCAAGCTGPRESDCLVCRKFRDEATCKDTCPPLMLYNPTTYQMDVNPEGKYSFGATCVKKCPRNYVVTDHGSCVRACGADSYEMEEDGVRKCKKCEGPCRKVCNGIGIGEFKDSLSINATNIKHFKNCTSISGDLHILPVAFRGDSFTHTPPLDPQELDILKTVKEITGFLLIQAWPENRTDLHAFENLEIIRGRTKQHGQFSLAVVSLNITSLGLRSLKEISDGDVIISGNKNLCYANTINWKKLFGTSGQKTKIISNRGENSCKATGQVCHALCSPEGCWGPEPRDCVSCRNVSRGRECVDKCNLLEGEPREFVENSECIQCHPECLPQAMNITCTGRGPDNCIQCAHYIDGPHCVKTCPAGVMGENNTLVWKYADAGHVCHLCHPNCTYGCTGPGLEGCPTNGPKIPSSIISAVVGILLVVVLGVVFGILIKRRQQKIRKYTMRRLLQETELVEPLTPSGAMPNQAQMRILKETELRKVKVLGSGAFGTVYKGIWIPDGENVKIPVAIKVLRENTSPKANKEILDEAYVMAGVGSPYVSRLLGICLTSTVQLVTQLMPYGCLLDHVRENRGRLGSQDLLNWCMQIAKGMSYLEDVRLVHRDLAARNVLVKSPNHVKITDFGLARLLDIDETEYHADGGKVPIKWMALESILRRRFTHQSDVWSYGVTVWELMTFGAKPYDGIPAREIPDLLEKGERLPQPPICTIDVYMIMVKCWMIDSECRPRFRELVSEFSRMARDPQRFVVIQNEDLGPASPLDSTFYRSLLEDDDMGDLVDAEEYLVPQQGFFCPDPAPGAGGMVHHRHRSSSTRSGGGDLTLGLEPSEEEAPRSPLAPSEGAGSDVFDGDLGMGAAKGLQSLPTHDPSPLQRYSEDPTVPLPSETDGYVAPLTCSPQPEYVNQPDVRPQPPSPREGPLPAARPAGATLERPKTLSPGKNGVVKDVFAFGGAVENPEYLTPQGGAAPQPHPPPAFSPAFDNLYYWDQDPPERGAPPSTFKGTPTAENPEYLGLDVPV
T2 sequence (P00533 25-1210): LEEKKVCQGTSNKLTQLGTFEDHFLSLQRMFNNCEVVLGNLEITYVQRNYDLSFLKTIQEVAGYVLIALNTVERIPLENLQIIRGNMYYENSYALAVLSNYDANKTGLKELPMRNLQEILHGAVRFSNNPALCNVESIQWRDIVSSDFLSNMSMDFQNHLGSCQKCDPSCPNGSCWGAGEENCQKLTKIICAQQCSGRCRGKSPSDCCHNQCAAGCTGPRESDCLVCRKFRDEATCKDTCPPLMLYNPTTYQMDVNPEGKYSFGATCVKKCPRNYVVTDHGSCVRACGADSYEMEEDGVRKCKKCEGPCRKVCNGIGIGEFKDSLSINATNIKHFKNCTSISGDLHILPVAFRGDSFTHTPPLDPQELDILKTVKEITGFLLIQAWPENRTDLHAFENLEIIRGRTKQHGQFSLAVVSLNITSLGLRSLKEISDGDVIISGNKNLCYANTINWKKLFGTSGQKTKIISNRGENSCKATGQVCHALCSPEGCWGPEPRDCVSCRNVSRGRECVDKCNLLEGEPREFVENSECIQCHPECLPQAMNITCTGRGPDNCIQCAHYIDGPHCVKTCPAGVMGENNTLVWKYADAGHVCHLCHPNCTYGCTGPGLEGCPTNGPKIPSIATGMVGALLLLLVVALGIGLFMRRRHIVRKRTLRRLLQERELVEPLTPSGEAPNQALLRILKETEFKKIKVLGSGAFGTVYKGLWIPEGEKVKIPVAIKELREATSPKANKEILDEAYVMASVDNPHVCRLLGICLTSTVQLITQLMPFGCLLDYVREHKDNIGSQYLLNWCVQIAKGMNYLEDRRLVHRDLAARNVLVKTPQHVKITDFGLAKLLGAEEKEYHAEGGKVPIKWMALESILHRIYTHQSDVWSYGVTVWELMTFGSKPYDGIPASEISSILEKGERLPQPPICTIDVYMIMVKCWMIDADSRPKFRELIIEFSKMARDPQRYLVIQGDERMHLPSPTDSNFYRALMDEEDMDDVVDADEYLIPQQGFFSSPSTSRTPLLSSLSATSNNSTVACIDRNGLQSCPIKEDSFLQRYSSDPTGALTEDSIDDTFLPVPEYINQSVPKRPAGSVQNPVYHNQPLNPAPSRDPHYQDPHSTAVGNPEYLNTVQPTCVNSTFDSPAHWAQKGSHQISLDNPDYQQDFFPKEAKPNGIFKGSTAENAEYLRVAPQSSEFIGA
Sequence of PDGFR (P09619 whole entry): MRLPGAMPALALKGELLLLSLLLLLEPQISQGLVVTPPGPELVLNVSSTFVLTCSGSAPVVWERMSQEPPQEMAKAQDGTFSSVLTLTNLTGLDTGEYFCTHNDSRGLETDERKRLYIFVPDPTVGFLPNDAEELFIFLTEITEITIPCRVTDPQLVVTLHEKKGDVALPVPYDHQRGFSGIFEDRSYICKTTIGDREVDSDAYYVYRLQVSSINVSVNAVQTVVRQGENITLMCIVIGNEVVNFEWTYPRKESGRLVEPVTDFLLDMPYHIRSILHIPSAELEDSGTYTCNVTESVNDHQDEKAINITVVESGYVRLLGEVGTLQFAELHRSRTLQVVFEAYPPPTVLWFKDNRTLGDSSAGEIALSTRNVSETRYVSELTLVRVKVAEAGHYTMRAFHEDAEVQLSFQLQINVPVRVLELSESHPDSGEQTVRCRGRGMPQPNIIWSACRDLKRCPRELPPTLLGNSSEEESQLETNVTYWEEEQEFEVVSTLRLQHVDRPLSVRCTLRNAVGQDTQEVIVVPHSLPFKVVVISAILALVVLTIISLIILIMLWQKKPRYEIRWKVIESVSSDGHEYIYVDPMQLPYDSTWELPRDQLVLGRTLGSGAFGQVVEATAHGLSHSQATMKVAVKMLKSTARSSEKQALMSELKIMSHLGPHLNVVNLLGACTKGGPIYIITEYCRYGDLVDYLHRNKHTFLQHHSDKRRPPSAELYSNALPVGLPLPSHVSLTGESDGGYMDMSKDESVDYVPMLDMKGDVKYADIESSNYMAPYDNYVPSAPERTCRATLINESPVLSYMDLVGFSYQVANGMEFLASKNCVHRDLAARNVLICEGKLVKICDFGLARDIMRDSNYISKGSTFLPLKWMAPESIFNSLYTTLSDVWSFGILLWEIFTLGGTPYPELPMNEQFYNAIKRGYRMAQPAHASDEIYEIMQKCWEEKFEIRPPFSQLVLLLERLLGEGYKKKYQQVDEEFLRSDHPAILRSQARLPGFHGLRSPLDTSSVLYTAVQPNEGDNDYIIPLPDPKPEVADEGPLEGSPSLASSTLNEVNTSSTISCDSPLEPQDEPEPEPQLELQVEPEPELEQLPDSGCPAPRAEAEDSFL

Consider `O=C(CCl)Nc1ccc2ncnc(Nc3cc(Cl)c(Cl)cc3F)c2c1` [Compound 5, N-{4-[(4,5-Dichloro-2-fluoro-phenyl)amino]-quinazolin-6-yl}-2-chloroacetamide], for which the 50% inhibitory concentration (IC50) against HER1-HER2 chimera is 25 to 50 nM; against EGFR-TK it was 10 to 50 nM; against PDGFR, more than 1000 nM.
